Patent US12291529B2, “Heterocyclic GLP-1 agonists” (Gasherbrum Bio, Inc., priority 2023, dated 2025)
Converted amounts (≈) assume the structure as drawn.

Assays:
GLP-1 Receptor = GLP-1 Receptor (Homo sapiens, UniProt P43220); assay: GLP-1R agonist cAMP stimulation assay (HEK293/GLP1R/CRE-LUC cells, Cisbio cAMP dynamic 2 kit); format: cell-based
In short: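 HEK293 cells stably expressing human GLP-1R with CRE-Luc reporter, 1000 cells/well in DPBS with 0.5 mM IBMX and BSA. Cells treated with compound (½-log dilutions) for 30 min at 37 °C. cAMP read by HTRF at 665/615 nm; % activity relative to vehicle and maximal control.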

Caco-2 cell monolayers = assay: Caco-2 permeability / efflux study; format: in vitro ADME; conditions: 10 μM, 2 hours; for Caco-2 Perm: 37° C., pH 7.4, 0.5% BSA
In short: (§1)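 Caco-2 monolayers in HBSS/10 mM HEPES pH 7.4 with 0.5% BSA; test article at 10 μM dosed to apical or basolateral donor side, 2 h at 37 °C, in duplicate. Both compartments sampled, protein precipitated with acetonitrile, analysed by UPLC-MS/MS. Monolayer integrity confirmed with Lucifer yellow.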

FaSSIF solubility = format: physicochemical; conditions: FaSSIF buffer
[1] = Caco-2 permeability / efflux study; format: in vitro ADME; conditions: human, Caco-2, pH 7.4, Caco-2 efflux ratio, 10 μM
In short: as §1

[2] = Table 3, HEK293/GLP1R/CRE-LUC cells, 30 min

Chain of GLP-1 Receptor (P43220 24-463, species assumed): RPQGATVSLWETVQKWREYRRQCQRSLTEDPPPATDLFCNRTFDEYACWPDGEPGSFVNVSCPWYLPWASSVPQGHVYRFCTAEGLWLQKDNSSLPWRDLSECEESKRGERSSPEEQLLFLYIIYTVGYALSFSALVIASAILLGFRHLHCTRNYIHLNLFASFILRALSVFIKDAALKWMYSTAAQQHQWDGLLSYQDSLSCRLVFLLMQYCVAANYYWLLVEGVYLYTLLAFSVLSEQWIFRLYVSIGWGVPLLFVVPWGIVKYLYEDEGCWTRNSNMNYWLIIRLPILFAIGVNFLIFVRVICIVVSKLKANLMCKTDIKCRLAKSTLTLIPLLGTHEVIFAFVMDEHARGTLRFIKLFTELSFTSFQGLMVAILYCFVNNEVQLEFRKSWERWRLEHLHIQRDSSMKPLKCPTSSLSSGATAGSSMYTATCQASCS

Row | EC50 (GLP-1 Receptor; [2]) [pM] | EC50 (GLP-1 Receptor; Table 4) [pM] | Caco-2 Perm (Caco-2 cell monolayers) [×10⁻⁶ cm/s] | Efflux (Caco-2 cell monolayers; Caco-2 efflux ratio) | Solubility (FaSSIF, μM) (FaSSIF solubility; 25° C., 4 hours) [µM] | efflux ratio at 2 h, 10 μM [1] | solubility at 4 h (FaSSIF solubility; 25 °C, fassif, thermodynamic from solid) [µM] | Compound
1 | 19 | 19 | 0.12 | 99.3 | 4.98 (≈ 4.41 µg/mL) |  |  | Cc1cc(-n2nc3c(c2-n2ccn(-c4ccc(S5(=O)=NCCC5)cc4)c2=O)[C@H](C)N(C(=O)c2cc4cc(C5CCOCC5)ccc4n2[C@@]2(c4noc(=O)[nH]4)C[C@@H]2C)CC3)cc(C)c1F (single isomer, unassigned) [Compound 143]
2 | 45 | 63 | < 0.05 |  |  | > 156 | 8.07 (≈ 7.15 µg/mL) | Cc1cc(-n2nc3c(c2-n2ccn(-c4ccc(S5(=O)=NCCC5)cc4)c2=O)[C@H](C)N(C(=O)c2cc4cc(C5CCOCC5)ccc4n2[C@@]2(c4noc(=O)[nH]4)C[C@@H]2C)CC3)cc(C)c1F (single isomer, unassigned) [Compound 142]
